Where two headings read alike, the source gives them in different places.
What was measured:
U251 cells = test: Agarose colony formation assay, U251 cells; type: cell-based, human; details: 10 μM, 2 weeks
Description: Agarose colony formation assay. Agarose colony formation assay was conducted as described (Horman, S. R. et al., J. Biomol. Screen 18(10):1298-308, 2013; Zhang, K. et al., Tumour Biol. 35(3):2537-48, 2014) using 6-well plates and 5,000 cells in each well. 10 μM NC9 or DMSO was added to every layer at the start of the experiments. 2 mL liquid MEM containing 10 μM NC9 or DMSO was used to cover the agarose and it was changed 3 times a week. Colony growth was monitored every day and at the end of 10-15 days, the colonies were fixed with 4% paraformaldehyde, stained with 0.005% crystal violet, washed with PBS twice and 40 random pictures were taken from each treatment group. A person blinded for the treatments measured the area of the colonies using ImageJ program and the volumes were calculated from the area data under the assumption that the colonies are perfect spheres. The volumes were used to compare the effect of NC9 on colony growth.

SCC-13 cells = test: Trypan Blue viability assay, SCC-13 spheroids; type: cell-based, human; details: 0-20 μM, 0-72 hours
Description: Trypan Blue viability assay. SCC-13 cells were grown as spheroids in six well cluster dishes in spheroid medium for 8 days and then treated with 0-20 μM NC9. At 0, 24, 48, and 72 hours post-NC9 treatment, spheroids were counted, and all cells in the well were collected to prepare a single cell suspension in Hank's Balanced Salt Solution. Trypan Blue solution (0.5 mL, 0.4%) was added to a 15 mL conical tube with 0.3 mL of Hank's Balanced Salt Solution and 0.2 ml of cell suspension. After 10 min, 8 μL of the mixture was transferred to a hemocytometer to count viable and total cell number.

TG2 = target: T1, TG2 (Homo sapiens, UniProt P21980); test: Kinetic inactivation of purified recombinant human TG2, continuous spectrophotometric activity assay (Examples 3, 10); type: biochemical; design: made in house
T1 sequence (P21980 1-687): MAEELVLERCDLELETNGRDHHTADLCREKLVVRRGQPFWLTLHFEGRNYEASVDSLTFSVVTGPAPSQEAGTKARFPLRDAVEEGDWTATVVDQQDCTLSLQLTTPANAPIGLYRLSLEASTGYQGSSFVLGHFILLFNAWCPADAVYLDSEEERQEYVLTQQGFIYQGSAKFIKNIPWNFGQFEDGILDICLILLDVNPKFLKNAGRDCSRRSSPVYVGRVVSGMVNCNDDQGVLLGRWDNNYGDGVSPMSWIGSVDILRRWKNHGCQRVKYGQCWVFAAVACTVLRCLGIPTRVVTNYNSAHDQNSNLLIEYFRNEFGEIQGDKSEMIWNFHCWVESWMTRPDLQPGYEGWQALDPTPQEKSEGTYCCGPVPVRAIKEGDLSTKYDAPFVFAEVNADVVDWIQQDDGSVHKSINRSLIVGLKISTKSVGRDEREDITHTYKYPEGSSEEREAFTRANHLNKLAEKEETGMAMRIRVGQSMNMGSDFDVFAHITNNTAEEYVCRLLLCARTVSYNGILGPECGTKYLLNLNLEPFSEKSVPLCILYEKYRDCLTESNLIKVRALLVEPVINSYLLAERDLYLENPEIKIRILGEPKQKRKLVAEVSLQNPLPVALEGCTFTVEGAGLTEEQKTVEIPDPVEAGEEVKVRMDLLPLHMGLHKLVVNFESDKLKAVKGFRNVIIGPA
Description: Kinetic studies were carried out in vitro, using purified recombinant human TG2 (Roy, I. et al., Protein Expr. Purif. 87: 41-46, 2013) and a direct, continuous spectrophotometric activity assay (Leblanc, A. et al., Biochemistry 40: 8335-8342, 2001).
Kinetics. Kinetic runs were performed at 25° C. in 100 mM MOPS buffer (pH 7.0) containing 3 mM CaCl2 and 50 μM EDTA. […] Stock solutions of the substrate and inhibitors were prepared in DMF such that the final concentration of this co-solvent was constant at 10% v/v. Reactions were initiated with the addition of enzyme with an activity of approximately 0.05 U/mL. Kinetic evaluation was carried out by the method of Stone and Hofsteenge (Stone, S. R. and Hofsteenge, J., Biochem. J. 230: 497-502, 1985). […] Observed first-order rate constants of inactivation were determined from non-linear regression, to a mono-exponential model. These rate constants were in turn fit to equation 1 by non-linear regression, providing the kinetic parameters
Kinetic parameters were determined as described above.

`C=CC(=O)NCCCC[C@H](NC(=O)OCc1ccccc1)C(=O)NCCOCCOCCNS(=O)(=O)c1cccc2c(N(C)C)cccc12` [NC9] was tested, and the “colony growth, U251” value (U251 cells) was “significantly reduced the growth” and the “viable cell number (trypan blue exclusion)” value (SCC-13 cells) was “concentration-dependent reduction in viable cell number”.
With `C=CC(=O)NCCCC[C@H](NC(=O)OCc1ccccc1)C(=O)N1CCN(C(=O)c2cc3ccc(O)cc3oc2=O)CC1` [VA5, (S)-Benzyl(6-acrylamido-1-(4-(7-hydroxy-2-oxo-2H-chromene-3-carbonyl)piperazin-1-yl)-1-oxohexan-2-yl)carbamate] the kinact (TG2; Table 4) was 0.0116 s⁻¹, the kinact/KI (TG2; read-out: kinact/KI (?M^−1min^−1), Table 1) was 130000 M⁻¹ min⁻¹ and the kinact/KI (TG2; read-out: kinact/Ki (μM^−1 min^−1), Table 4, for ^a no saturation observed, efficiency obtained from initial slope) was 165000 M⁻¹ min⁻¹.
